This note sets out measurements from US8119635B2, “Diazabicyclic central nervous system active agents” (Abbott Laboratories, priority 2000, dated 2012).

In series [1] the target is T1, neuronal nicotinic acetylcholine receptors (Rattus norvegicus, UniProt P09483+P12390).
T1 construct: crude synaptic membrane preparations from whole rat brain; from tissue; host or cells: whole rat brain, crude synaptic membranes
Description: Binding of [3H]-cytisine to neuronal nicotinic acetylcholine receptors, crude synaptic membranes from whole rat brain.

Another series has as its system mice. Description: Mouse hot plate paradigm (analgesia). The class given is in vivo. The conditions noted are these: ip, 0.5 h, intraperitoneal, dosed 30 minutes prior to testing, hot plate 55° C., latency until the tenth jump, read-out: (MED) minimally effective dose, mouse hot plate. How it is done:
An in vivo protocol was utilized to determine the effectiveness of nicotinic acetylcholine receptor ligands as analgesic agents in the mouse hot plate paradigm.
Separate groups of mice, (n=8/group) were utilized for each dose group. All drugs were administered by the intraperitoneal route of administration. Test drugs were dissolved in water to make a 6.2 mM stock solution. Animals were dosed with this solution (10 mL/kg body weight) for a 62 micromol/kg dose. Lower doses were administered similarly, following serial dilution of the stock solution in half-log increments. Animals were dosed 30 minutes prior to testing in the hot plate. The hot-plate utilized was an automated analgesia monitor (Model #AHP16AN, Omnitech Electronics, Inc. of Columbus, Ohio). The temperature of the hot plate was maintained at 55° C. and a cut-off time of 180 seconds was utilized. Latency until the tenth jump was recorded as the dependent measure. An increase in the tenth jump latency relative to the control was considered an effect.

A further series has as its system Male Sprague-Dawley rats. As to the kind of experiment: Formalin test (analgesia). It is filed as in vivo. Conditions: Rattus norvegicus, ip, intraperitoneally 5 minutes before injection of 50 μL 5% formalin into rear paw, nocifensive behaviors, read-out: (MED) minimally effective dose, formalin test.

T1 sequence (P09483 31-630): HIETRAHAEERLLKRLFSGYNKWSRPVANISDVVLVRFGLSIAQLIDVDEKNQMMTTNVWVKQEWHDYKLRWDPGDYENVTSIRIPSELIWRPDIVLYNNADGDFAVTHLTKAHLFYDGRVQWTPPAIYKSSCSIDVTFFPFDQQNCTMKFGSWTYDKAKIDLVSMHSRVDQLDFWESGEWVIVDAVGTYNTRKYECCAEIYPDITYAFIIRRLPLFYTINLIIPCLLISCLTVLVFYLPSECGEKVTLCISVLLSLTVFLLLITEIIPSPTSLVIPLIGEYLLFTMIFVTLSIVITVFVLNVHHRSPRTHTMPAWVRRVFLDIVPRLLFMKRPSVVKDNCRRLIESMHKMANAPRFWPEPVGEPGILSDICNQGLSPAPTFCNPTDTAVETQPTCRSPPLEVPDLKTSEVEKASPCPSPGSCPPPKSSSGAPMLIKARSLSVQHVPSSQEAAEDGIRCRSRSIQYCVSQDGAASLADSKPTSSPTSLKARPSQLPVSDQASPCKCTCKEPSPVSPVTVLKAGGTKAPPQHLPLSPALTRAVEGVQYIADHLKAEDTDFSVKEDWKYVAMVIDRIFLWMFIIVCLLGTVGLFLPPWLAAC
T1 sequence (P12390 25-500): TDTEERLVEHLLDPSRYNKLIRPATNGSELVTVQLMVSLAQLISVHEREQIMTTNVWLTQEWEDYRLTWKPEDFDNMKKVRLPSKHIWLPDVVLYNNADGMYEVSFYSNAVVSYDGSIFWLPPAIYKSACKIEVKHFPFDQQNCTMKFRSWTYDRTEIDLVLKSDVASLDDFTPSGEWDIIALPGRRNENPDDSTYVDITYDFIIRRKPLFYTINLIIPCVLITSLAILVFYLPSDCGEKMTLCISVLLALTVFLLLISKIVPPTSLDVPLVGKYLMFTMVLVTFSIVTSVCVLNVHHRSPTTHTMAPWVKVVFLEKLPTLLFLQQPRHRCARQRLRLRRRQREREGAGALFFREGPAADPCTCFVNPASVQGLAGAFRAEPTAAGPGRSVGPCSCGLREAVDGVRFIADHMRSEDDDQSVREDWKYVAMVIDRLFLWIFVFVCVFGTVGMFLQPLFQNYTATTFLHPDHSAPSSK

As for `Cl.Cl.c1cncc(N2C[C@H]3CNC[C@H]3C2)c1` [Example 1, cis-2-(3-pyridinyl)octahydropyrrolo[3,4-c]pyrrole dihydrochloride], the melting point (commonly the temperature of the solid-liquid transition) is 250 to 252 °C (dec.). Further, in series [1], the Ki (commonly a measure of affinity in units of concentration, obtained from inhibition or displacement) came out at 120 pM. For the same molecule, the minimal effective dose in the series on mice turned out to be 19 µmol/kg. In addition, in the series with Male Sprague-Dawley rats, the minimal effective dose stood at 0.62 µmol/kg.
